Data: publication PMC11852925 (2025)

How the values were obtained:
Assay in all cases: fluorescence titration, multiwavelength global analysis
[1] = tested on: hTel22 (DNA, G4) AGGGTTAGGGTTAGGGTTAGGG; conditions: 100 mM KCl, 10 mM K-phosphate pH 7.0, 295 K, 1:1 complex
[2] = tested on: c-myc22 (DNA, G4) GAGGGTGGGGAGGGTGGGGAAG; conditions: 100 mM KCl, 10 mM K-phosphate pH 7.0, 295 K, 1:1 complex
[3] = tested on: hTel45 (DNA, G4) GGGTTAGGGTTAGGGTTAGGGTTAGGGTTAGGGTTAGGGTTAGGG; conditions: 100 mM KCl, 10 mM K-phosphate pH 7.0, 295 K
[4] = tested on: ds26 (DNA, duplex) CAATCGGATCGAATTCGATCCGATTG; conditions: 100 mM KCl, 10 mM K-phosphate pH 7.0, 295 K

Question: For `CCCNC(=O)c1ccc2[nH]c3c([nH]c2c1)c1c(=O)n(CCCN(C)C)c(=O)c2ccc4c(=O)n(CCCN(C)C)c(=O)c3c4c21`, which logK ([1]; ligand dimerization (logK 6.6) included, cumulative 1:2 logK 14.04) is on record?
Answer: The logK was 7.64 ± 0.16.

Question: What about the logK ([2]; dimerization (logK 6.6) included, cumulative 1:2 14.74) of the same compound?
Answer: The logK was 6.89 ± 0.05.

Question: What about the logK ([3]; cumulative constant of 1:2 (DNA:ligand) complex, 1:4 28.6, dimerization included) of the same compound?
Answer: Its logK is 14.41 ± 0.05.

Question: What about the logK ([4]; per site of 1:2 complex, cumulative 1:2 15.25, 1:4 29.15) of the same compound?
Answer: The logK was 7.6.

Question: For `CN(C)CCCN1C(=O)c2ccc3c4c(c(NCc5cn(CCCNC(=O)c6ccc7[nH]c8c([nH]c7c6)c6c(=O)n(CCCN(C)C)c(=O)c7ccc9c(=O)n(CCCN(C)C)c(=O)c8c9c76)nn5)cc(c24)C1=O)C(=O)N(CCCN(C)C)C3=O`, which logK ([1]; cumulative 1:2 14.68, 1:3 20.37) is on record?
Answer: Its logK is 7.67 ± 0.05.

Question: And the logK ([2]; cumulative 1:2 14.36, 2:1 11.69)?
Answer: The logK was 7.77 ± 0.12.

Question: What about the logK ([3]; cumulative constant of 1:2 (DNA:dyad) complex, 1:4 26.88, 2:1 11.55) of the same compound?
Answer: Its logK is 13.80 ± 0.05.

Question: What about the logK ([4]; 1:1 complex, cumulative 1:2 12.48, 1:3 17.70) of the same compound?
Answer: Its logK is 5.82 ± 0.02.

Question: How did the logK ([1]; cumulative 1:2 15.71, 2:1 (DNA:dyad) 14.14) turn out when `CN(C)CCCN1C(=O)c2ccc3c4c(c(NCCCCCCCNC(=O)c5ccc6[nH]c7c([nH]c6c5)c5c(=O)n(CCCN(C)C)c(=O)c6ccc8c(=O)n(CCCN(C)C)c(=O)c7c8c65)cc(c24)C1=O)C(=O)N(CCCN(C)C)C3=O` was run?
Answer: Its logK is 8.93 ± 0.07.

Question: What about the logK ([2]; cumulative 1:2 13.78) of the same compound?
Answer: The logK was 6.16 ± 0.02.

Question: And the logK ([3]; 1:1 complex, cumulative 1:2 12.94, 1:4 25.52, 2:1 13.24)?
Answer: Its logK is 7.91 ± 0.07.

Question: What about the logK ([4]; 1:1 complex, cumulative 1:2 12.95, 1:3 18.35) of the same compound?
Answer: Its logK is 6.50 ± 0.03.
